Assay results from patent publication US20240100170A1, “CYCLIC-AMP RESPONSE ELEMENT BINDING PROTEIN (CBP) AND/OR ADENOVIRAL E1A BINDING PROTEIN OF 300 KDA (P300) DEGRADATION COMPOUNDS AND METHODS OF USE” (CULLGEN (SHANGHAI), INC., priority 2020, published 2024).

Test system: LNCaP prostate cancer cell
Assay: LNCaP cell viability (CellTiter-Glo)
Format: cell-based
Details: 3 days; for IC50: Homo sapiens, 72 h, LNCaP cell viability, CellTiter-Glo; for viability of LNCaP cells: 3-fold serial dilution from 10 μM, FIG. 4
Protocol: LNCaP cells seeded in 96-well plates were treated with 10 μM GNE-781 or selected bivalent compounds, i.e. P-001, P-002, and P-019, following a 12-point 3-fold serial dilution. Three days after treatment, cell viability was determined using the CellTiter-Glo kit (Promega) following manufacturer's instructions. Cell viability was normalized to the mean values of 3 replicates of untreated cells. Dose-dependent response was analyzed following the least-squares non-linear regression method using the GraphPad Prism 5.0 software.
LNCaP (clone FGC), 22RV1 and other cells were cultured at 37° C. with 5% CO 2 in RPMI 1640 Medium supplemented with 10% fetal bovine serum. Cells were authenticated using the short tandem repeat (STR) assays. Mycoplasma test results were negative.
Cells were seeded at a density of 5000 cells per well in 96-well assay plates and treated with test compounds following a 12-point 3-fold serial dilution. Three days later, cell viability was determined using the CellTiter-Glo assay kit according to the manufactureR's instructions. The dose-response curves were determined and IC50 values were calculated using the GraphPad Prism software following a nonlinear regression (least squares fit) method.

SMILES | IC50 (Table 4) | further results
CC(=O)N1CCc2c(c(N3CCCc4cc(-c5cnn(C)c5)c(C(F)F)cc43)nn2C2CCN(C(=O)CCCN3CCN(CC(=O)Nc4cccc(NC5CCC(=O)NC5=O)c4)CC3)CC2)C1 (centres unmarked) [P-259, 2-(4-(4-(4-(5-acetyl-3-(7-(difluoromethyl)-6-(1-methyl-1H-pyrazol-4-yl)-3,4-dihydroquinolin-1(2H)-yl)-4,5,6,7-tetrahydro-1H-pyrazolo[4,3-c]pyridin-1-yl)piperidin-1-yl)-4-oxobutyl)piperazin-1-yl)-N-(3-((2,6-dioxopiperidin-3-yl)amino)phenyl)acetamide] | > 500 nM | –
CNC(=O)N1CCc2c(c(N3CCCc4cc(-c5cnn(CC(=O)NCCCCCCCCCC(=O)NC(C(=O)N6C[C@H](O)CC6C(=O)NCc6ccc(-c7scnc7C)cc6)C(C)(C)C)c5)c(C(F)F)cc43)nn2C2CCOCC2)C1 (stereo in doubt) [P-049, 3-(7-(difluoromethyl)-6-(1-(2-((10-(((S)-1-((2S,4R)-4-hydroxy-2-((4-(4-methylthiazol-5-yl)benzyl)carbamoyl)pyrrolidin-1-yl)-3,3-dimethyl-1-oxobutan-2-yl)amino)-10-oxodecyl)amino)-2-oxoethyl)-1H-pyrazol-4-yl)-3,4-dihydroquinolin-1(2H)-yl)-N-methyl-1-(tetrahydro-2H-pyran-4-yl)-1,4,6,7-tetrahydro-5H-pyrazolo[4,3-c]pyridine-5-carboxamide] | – | IC50 (Table 2): 234 nM
CNC(=O)N1CCc2c(c(N3CCCc4cc(-c5cnn(CC(=O)NCCCCCNc6ccc7c(c6)C(=O)N(C6CCC(=O)NC6=O)C7=O)c5)c(C(F)F)cc43)nn2C2CCOCC2)C1 (centres unmarked) [P-019, 3-(7-(difluoromethyl)-6-(1-(2-((5-((2-(2,6-dioxopiperidin-3-yl)-1,3-dioxoisoindolin-5-yl)amino)pentyl)amino)-2-oxoethyl)-1H-pyrazol-4-yl)-3,4-dihydroquinolin-1(2H)-yl)-N-methyl-1-(tetrahydro-2H-pyran-4-yl)-1,4,6,7-tetrahydro-5H-pyrazolo[4,3-c]pyridine-5-carboxamide] | – | viability of LNCaP cells: dose-dependently suppressed viability of LNCaP cells
CC(=O)N1CCc2c(c(N3CCCc4cc(-c5cnn(C)c5)c(C(F)F)cc43)nn2C2CCN(CCCCN3CCN(c4cccc5c4C(=O)N(C4CCC(=O)NC4=O)C5=O)CC3)CC2)C1 (centres unmarked) [P-248, 4-(4-(4-(4-(5-Acetyl-3-(7-(difluoromethyl)-6-(1-methyl-1H-pyrazol-4-yl)-3,4-dihydroquinolin-1(2H)-yl)-4,5,6,7-tetrahydro-1H-pyrazolo[4,3-c]pyridin-1-yl)piperidin-1-yl)butyl)piperazin-1-yl)-2-(2,6-dioxopiperidin-3-yl)isoindoline-1,3-dione] | 241 nM | –
CNC(=O)N1CCc2c(c(N3CCCc4cc(-c5cnn(C)c5)c(C(F)F)cc43)nn2C2CCN(C(=O)CCNc3ccc4c(c3)C(=O)N(C3CCC(=O)NC3=O)C4=O)CC2)C1 (centres unmarked) [P-002, 3-(7-(difluoromethyl)-6-(1-methyl-1H-pyrazol-4-yl)-3,4-dihydroquinolin-1(2H)-yl)-1-(1-(3-((2-(2,6-dioxopiperidin-3-yl)-1,3-dioxoisoindolin-5-yl)amino)propanoyl)piperidin-4-yl)-N-methyl-1,4,6,7-tetrahydro-5H-pyrazolo[4,3-c]pyridine-5-carboxamide] | – | viability of LNCaP cells: dose-dependently suppressed viability of LNCaP cells
CC(=O)N1CCc2c(c(N3CCCc4cc(-c5cnn(C)c5)c(C(F)F)cc43)nn2C2CCN(C(=O)CC3CCN(CC(=O)Nc4cccc(NC5CCC(=O)NC5=O)c4)CC3)CC2)C1 (centres unmarked) [P-260, 2-(4-(2-(4-(5-acetyl-3-(7-(difluoromethyl)-6-(1-methyl-1H-pyrazol-4-yl)-3,4-dihydroquinolin-1(2H)-yl)-4,5,6,7-tetrahydro-1H-pyrazolo[4,3-c]pyridin-1-yl)piperidin-1-yl)-2-oxoethyl)piperidin-1-yl)-N-(3-((2,6-dioxopiperidin-3-yl)amino)phenyl)acetamide] | > 500 nM | –
CNC(=O)N1CCc2c(c(N3CCCc4cc(-c5cnn(CC(=O)NCCCCCCCCCCC(=O)N[C@H](C(=O)N6CC(O)C[C@H]6C(=O)NCc6ccc(-c7scnc7C)cc6)C(C)(C)C)c5)c(C(F)F)cc43)nn2C2CCOCC2)C1 (stereo in doubt) [P-050, 3-(7-(difluoromethyl)-6-(1-(2-((11-(((S)-1-((2S,4R)-4-hydroxy-2-((4-(4-methylthiazol-5-yl)benzyl)carbamoyl)pyrrolidin-1-yl)-3,3-dimethyl-1-oxobutan-2-yl)amino)-11-oxoundecyl)amino)-2-oxoethyl)-1H-pyrazol-4-yl)-3,4-dihydroquinolin-1(2H)-yl)-N-methyl-1-(tetrahydro-2H-pyran-4-yl)-1,4,6,7-tetrahydro-5H-pyrazolo[4,3-c]pyridine-5-carboxamide] | – | IC50 (Table 2): 111 nM
CC(=O)N1CCc2c(c(N3CCCc4cc(-c5cnn(C)c5)c(C(F)F)cc43)nn2C2CCN(C(=O)CN3CCN(CC#Cc4cccc5c4n(C)c(=O)n5C4CCC(=O)NC4=O)CC3)CC2)C1 (centres unmarked) [P-226, 3-(4-(3-(4-(2-(4-(5-Acetyl-3-(7-(difluoromethyl)-6-(1-methyl-1H-pyrazol-4-yl)-3,4-dihydroquinolin-1(2H)-yl)-4,5,6,7-tetrahydro-1H-pyrazolo[4,3-c]pyridin-1-yl)piperidin-1-yl)-2-oxoethyl)piperazin-1-yl)prop-1-yn-1-yl)-3-methyl-2-oxo-2,3-dihydro-1H-benzo[d]imidazol-1-yl)piperidine-2,6-dione] | 398 nM | –
CNC(=O)N1CCc2c(c(N3CCCc4cc(-c5cnn(CC(=O)NCCOCCOCC(=O)N[C@H](C(=O)N6C[C@H](O)C[C@H]6C(=O)NCc6ccc(-c7scnc7C)cc6)C(C)(C)C)c5)c(C(F)F)cc43)nn2C2CCOCC2)C1 [P-083, 3-(7-(difluoromethyl)-6-(1-((S)-13-((2S,4R)-4-hydroxy-2-((4-(4-methylthiazol-5-yl)benzyl)carbamoyl)pyrrolidine-1-carbonyl)-14,14-dimethyl-2,11-dioxo-6,9-dioxa-3,12-diazapentadecyl)-1H-pyrazol-4-yl)-3,4-dihydroquinolin-1(2H)-yl)-N-methyl-1-(tetrahydro-2H-pyran-4-yl)-1,4,6,7-tetrahydro-5H-pyrazolo[4,3-c]pyridine-5-carboxamide] | – | IC50 (Table 3): > 10000 nM
CC(=O)N1CCc2c(c(N3CCCc4cc(-c5cnn(C)c5)c(C(F)F)cc43)nn2C2CCN(CCN3CCC(COc4cccc5c4n(C)c(=O)n5C4CCC(=O)NC4=O)CC3)CC2)C1 (centres unmarked) [P-255, 3-(4-((1-(2-(4-(5-Acetyl-3-(7-(difluoromethyl)-6-(1-methyl-1H-pyrazol-4-yl)-3,4-dihydroquinolin-1(2H)-yl)-4,5,6,7-tetrahydro-1H-pyrazolo[4,3-c]pyridin-1-yl)piperidin-1-yl)ethyl)piperidin-4-yl)methoxy)-3-methyl-2-oxo-2,3-dihydro-1H-benzo[d]imidazol-1-yl)piperidine-2,6-dione] | > 500 nM | –

Now from value to compound, other results behind:

IC50 (Table 4) | SMILES | further results
> 500 nM | CC(=O)N1CCc2c(c(N3CCCc4cc(-c5cnn(C)c5)c(C(F)F)cc43)nn2C2CCN(C(=O)CCN3CCC(COc4cccc5c4n(C)c(=O)n5C4CCC(=O)NC4=O)CC3)CC2)C1 (centres unmarked) [P-209, 3-(4-((1-(3-(4-(5-acetyl-3-(7-(difluoromethyl)-6-(1-methyl-1H-pyrazol-4-yl)-3,4-dihydroquinolin-1(2H)-yl)-4,5,6,7-tetrahydro-1H-pyrazolo[4,3-c]pyridin-1-yl)piperidin-1-yl)-3-oxopropyl)piperidin-4-yl)methoxy)-3-methyl-2-oxo-2,3-dihydro-1H-benzo[d]imidazol-1-yl)piperidine-2,6-dione] | –
> 500 nM | CC(=O)N1CCc2c(c(N3CCCc4cc(-c5cnn(C)c5)c(C(F)F)cc43)nn2C2CCN(C(=O)CCC3CCN(CC(=O)Nc4cccc(NC5CCC(=O)NC5=O)c4)CC3)CC2)C1 (centres unmarked) [P-261, 2-(4-(3-(4-(5-acetyl-3-(7-(difluoromethyl)-6-(1-methyl-1H-pyrazol-4-yl)-3,4-dihydroquinolin-1(2H)-yl)-4,5,6,7-tetrahydro-1H-pyrazolo[4,3-c]pyridin-1-yl)piperidin-1-yl)-3-oxopropyl)piperidin-1-yl)-N-(3-((2,6-dioxopiperidin-3-yl)amino)phenyl)acetamide] | –
> 500 nM | CC(=O)N1CCc2c(c(N3CCCc4cc(-c5cnn(C)c5)c(C(F)F)cc43)nn2C2CCN(C(=O)CCN3CCC(COc4ccc5c(c4)n(C)c(=O)n5C4CCC(=O)NC4=O)CC3)CC2)C1 (centres unmarked) [P-203, 3-(5-((1-(3-(4-(5-acetyl-3-(7-(difluoromethyl)-6-(1-methyl-1H-pyrazol-4-yl)-3,4-dihydroquinolin-1(2H)-yl)-4,5,6,7-tetrahydro-1H-pyrazolo[4,3-c]pyridin-1-yl)piperidin-1-yl)-3-oxopropyl)piperidin-4-yl)methoxy)-3-methyl-2-oxo-2,3-dihydro-1H-benzo[d]imidazol-1-yl)piperidine-2,6-dione] | –
> 500 nM | CC(=O)N1CCc2c(c(N3CCCc4cc(-c5cnn(C)c5)c(C(F)F)cc43)nn2C2CCN(C(=O)CCCC3CCN(CC(=O)Nc4cccc(NC5CCC(=O)NC5=O)c4)CC3)CC2)C1 (centres unmarked) [P-262, 2-(4-(4-(4-(5-Acetyl-3-(7-(difluoromethyl)-6-(1-methyl-1H-pyrazol-4-yl)-3,4-dihydroquinolin-1(2H)-yl)-4,5,6,7-tetrahydro-1H-pyrazolo[4,3-c]pyridin-1-yl)piperidin-1-yl)-4-oxobutyl)piperidin-1-yl)-N-(3-((2,6-dioxopiperidin-3-yl)amino)phenyl)acetamide] | –
